In the Deep4Chem optical property database one finds absorption maximum data, which are given here for 36 compounds.

The data set is described as follows: solvent given as SMILES.

Where “and” joins values, the source holds several entries; their conditions need not be identical. Equal values may be shown once.

In turn, `Nc1ccc2[nH]ncc2c1` registered an absorption maximum (in C1CCCCC1) of 326 nm.

`CCCCn1c2ccccc2c2c1c1c3ccccc3n(CCCC)c1c1c3ccccc3n(CCCC)c21` showed an absorption maximum (in C1CCOC1) of 316 nm.

As for `CN1C(C(=O)Nc2ccccn2)=C([O-])c2sccc2S1(=O)=O`, the absorption maximum is, setting by setting: (in CC#N) 382 nm; (in CCCCO) 377 nm; (in CCCO) 376 nm; (in CCO) 375 nm; (in CO) 373 nm.

Regarding `CC(=O)c1cc(=O)n(C)c2cc(-c3ccc(N(C)C)cc3)sc12`, the absorption maximum is, setting by setting: (in CC#N) 440 nm; (in ClCCl) 448 nm.

For the setting “in ClC(Cl)Cl”, `CN1C(=CC2=C([O-])C(=Cc3sc4ccccc4[n+]3C)C2=C(C#N)C#N)Sc2ccccc21` yielded an absorption maximum of 703 nm.

`O=C1Nc2ccccc2/C1=C/C(=O)c1ccc(Cl)cc1Cl`: the absorption maximum reads like this: (in C1CCCCC1) 336 nm; (in C1COCCO1) 337 nm; (in CC#N) 334 nm; (in CC(C)(C)O) 339 nm; (in CC(C)O) 339 nm; (in CCCCCC) 334 nm. Besides, the absorption maximum reads like this: (in CCCCO) 341 nm; (in CCOC(C)=O) 335 nm; (in CN(C)C=O) 340 nm; (in CO) 339 nm; (in ClCCl) 339 nm; (in O) 340 nm.

As to `CCC1=C(C)C(=O)n2c1cc1c(C)c(CC)c(C)n1c2=O`, the absorption maximum runs as follows: (in CC#N) 423 nm; (in CC(C)=O) 422 nm; (in CO) 428 nm; (in CS(C)=O) 428 nm; (in ClC(Cl)Cl) 432 nm; (in c1ccccc1) 428 nm.

In the case of `COc1ccc(-c2ccc(-c3c4c(nc5ccccc35)-c3cc5c(cc3CC4)-c3nc4ccccc4c(-c4ccc(-c6ccc(OC)cc6)cc4)c3CC5)cc2)cc1`, the absorption maximum (in ClC(Cl)Cl) stood at 376 nm.

The compound `O=c1c2cc(F)c(O)cc2sc2cc(O)c(F)cc12` returned an absorption maximum (in CCO) of 377 nm.

Compound `CCCCCn1c2ccc(S(=O)(=O)Cl)cc2c(=O)c2cc(S(=O)(=O)Cl)ccc21` had an absorption maximum (in CS(C)=O) of 406 nm.

For the compound `COc1ccc(C2=C3C(C)=CC(C)=[N+]3[B-](F)(F)n3c(C)cc(C)c32)cc1`, the absorption maximum (in Cc1ccccc1) stood at 504 nm.

Take `CC(C)C[Si](C#Cc1c2c(=O)c3ccccc3c2c(C#C[Si](CC(C)C)(CC(C)C)CC(C)C)c2c(=O)c3ccccc3c12)(CC(C)C)CC(C)C`: for the setting “in ClC(Cl)Cl”, the absorption maximum amounted to 524 nm.

For `CC1=[N+]2C(=C(c3c4ccccc4cc4ccccc34)c3ccc(C)n3[B-]2(F)F)C=C1`, the absorption maximum is 517 nm (in C1CCOC1); 514 nm (in CC#N); 515 nm and 516 nm (in CCCCCC); 515 nm (in CCO); 517 nm (in CN(C)C=O); 517 nm (in CO). For the same compound, the absorption maximum reads like this: (in CS(C)=O) 519 nm; (in Cc1ccccc1) 519 nm; (in ClC(Cl)Cl) 518 nm; (in ClCCl) 518 nm.

As to `COc1cc(F)c(C(=O)c2cc(F)c(OC)cc2F)cc1F`, the absorption maximum (in CCO) is on record as 301 nm.

The compound `CN(C)c1ccccc1` displayed an absorption maximum (in C1CCCCC1) of 293.94 nm.

`c1ccc(-c2nnc(-c3cc(-c4nnc(-c5ccccc5)o4)c(-n4c5ccccc5c5ccccc54)cc3-n3c4ccccc4c4ccccc43)o2)cc1` had an absorption maximum (in Cc1ccccc1) of 370 nm.

With `CCn1c2cc(-c3ccc(-c4cccs4)s3)ccc2c2ccc(-c3ccc(-c4cccs4)s3)cc21`, the absorption maximum (in ClCCl) was 399 nm.

With `Cc1ccc(C)cc1`, under “in C1CCCCC1”, the absorption maximum is 262.88 nm.

Take `COc1ccc(-c2cc3c(s2)-c2sc(-c4ccc(OC)cc4)cc2P(c2ccccc2)(c2ccccc2)=[O+][B-]3(c2c(C)cc(C)cc2C)c2c(C)cc(C)cc2C)cc1`: the absorption maximum (in C1CCOC1) amounted to 415 nm.

Regarding `COc1ccc2c(c1)C(=O)c1cc(OC)cc(OC)c1-2`, the absorption maximum was 478 nm (in C1CCCCC1), 491 nm (in CC#N) and 492 nm (in CCO).

Turning to `Cc1cc(C)n2c1C=C1c3ccccc3C(c3c[nH]c4ccccc34)=[N+]1[B-]2(F)F`, the absorption maximum was 583 nm (in C1CCOC1); 575 nm (in CC#N); 580 nm (in CCCCCC); 579 nm (in CO); 587 nm (in Cc1ccccc1); 581 nm (in ClCCl).

As for `CC(C)(C)c1ccc(-c2nc3ccccc3nc2-c2cc(-c3nc4ccccc4nc3-c3ccc(C(C)(C)C)cc3)cc(-n3c4ccccc4c4ccccc43)c2)cc1`, the absorption maximum (in Cc1ccccc1) stood at 344 nm.

Turning to `CCCCC1(CCCC)c2cc(/C=C/c3ccc(N(c4ccccc4)c4ccccc4)cc3)ccc2-c2cc3c(cc21)-c1ccc(/C=C/c2ccc(N(c4ccccc4)c4ccccc4)cc2)cc1C3(CCCC)CCCC`, for the setting “in Cc1ccccc1”, the absorption maximum amounted to 413 nm.

`COc1cc(-c2nc3c4cccnc4c4ncccc4c3[nH]2)c(OC)cc1/C=C/c1nc2ccccc2[nH]1` returned an absorption maximum (in C1CCOC1) of 401 nm, an absorption maximum (in CC#N) of 398 nm, an absorption maximum (in CO) of 391 nm and an absorption maximum (in ClCCl) of 400 nm.

With `C1=Cc2ccccc2C(=Cc2ccc(-c3cc(-c4ccc(C=C5c6ccccc6C=Cc6ccccc65)cc4)cc(-c4ccc(C=C5c6ccccc6C=Cc6ccccc65)cc4)c3)cc2)c2ccccc21`, the absorption maximum (in C1CCOC1) amounted to 325 nm.

Under “in C1CCOC1”, `COc1cc2oc(=O)c3c4ccc(N(C)C)cc4c4ccc5cccc6c(c1)c2c3c4c56` had an absorption maximum of 480 nm.

The compound `Cc1nn(-c2ccccc2)c2c1c(=O)oc1ccc(-n3c4ccccc4c4cc(-n5c6ccccc6c6ccccc65)ccc43)cc12` returned an absorption maximum (in Cc1ccccc1) of 342 nm.

Regarding `C(=C\c1ccccn1)/c1ccc(N(c2ccc(/C=C/c3ccccn3)cc2)c2ccc(-c3nc4ccccc4nc3-c3ccc(N(c4ccc(/C=C/c5ccccn5)cc4)c4ccc(/C=C/c5ccccn5)cc4)cc3)cc2)cc1`, the absorption maximum runs as follows: (in C1CCOC1) 383 nm; (in Cc1ccccc1) 378 nm.

For `Cc1cc(-c2nnc(-c3c(C(C)C)cc(C(C)C)cc3C(C)C)o2)ccc1-n1c2ccccc2c2ccccc21`, the absorption maximum (in Cc1ccccc1) was found to be 339 nm.

With `CCN(CC)c1ccc(-n2c(C)ccc2C)cc1`, the absorption maximum stood at 304 nm (in CC#N) and 310 nm (in CCCCCC).

Turning to `c1ccc(-p2c(-c3cccs3)cc3ccccc32)cc1` (stereo not drawn), for the setting “in C1CCOC1”, the absorption maximum worked out at 350 nm.

As for `CCCCCOc1cc2oc(=O)c3c4ccc(N(c5ccccc5)c5ccccc5)cc4c4ccc5cccc6c(c1)c2c3c4c56`, under “in C1CCOC1”, the absorption maximum came out at 476 nm.

`c1ccc(-c2nc(-c3ccccc3)nc(-c3ccc(-n4c5ccccc5c5cc(-c6ccc7sc8ccccc8c7c6)ccc54)cc3)n2)cc1` had an absorption maximum (in Cc1ccccc1) of 370 nm.

With `CCCCC1=C(CCCC)c2cccc3c2c(cc2nc4ccccc4nc23)O1`, the absorption maximum (in ClCCl) stood at 503 nm.

`COC(=O)C(N)Cc1ccc(O[Si]2(Oc3ccc(CC(N)C(=O)OC)cc3)n3c4c5ccccc5c3/N=C3N=C(/N=c5/c6ccccc6/c(n52)=N/C2=NC(=N\4)/c4ccccc42)c2ccccc2\3)cc1` (stereo not drawn) yielded an absorption maximum (in CN(C)C=O) of 680 nm.

For `N#Cc1c(C#N)c2cc(F)ccc2c2ccc(F)cc12`, the absorption maximum (in ClC(Cl)Cl) is 335 nm.
